Reference: PubChem BioAssay (NCI)
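Test compounds were applied to cells in 96-well plates for 48 hours at 5 doses. Abbreviation: GI50, concentration required for 50% inhibition of growth. Definition used: TGI = concentration required for complete inhibition of growth.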

What was measured:
Test in all cases: DTP human tumour cell line panel, 48 h
MDA-N = test system: MDA-N
DLD-1 colon = test system: DLD-1 colon
DMS 273 small cell lung = test system: DMS 273 small cell lung
KM20L2 colon = test system: KM20L2 colon
LXFL 529 NSCLC = test system: LXFL 529 NSCLC
RXF-631 renal = test system: RXF-631 renal
HOP-18 NSCLC = test system: HOP-18 NSCLC

SMILES	TGI (MDA-N) [µM]	TGI (DLD-1 colon) [µM]	TGI (DMS 273 small cell lung) [µM]	TGI (KM20L2 colon) [µM]	TGI (LXFL 529 NSCLC) [µM]	TGI (RXF-631 renal) [µM]	TGI (HOP-18 NSCLC) [µM]	GI50 (MDA-N) [µM]
O=P1(O)c2ccccc2CSCc2ccccc21	> 100	–	–	–	–	–	–	–
CCOc1ccc(N=C2NC(=O)C(CC(=O)Nc3ccc(Cl)cc3Cl)S2)cc1 (centres undefined)	–	> 100	> 100	> 100	> 100	> 100	–	–
O=[N+]([O-])c1cccc(C=NC23CC4CC(CC(C4)C2)C3)c1	–	> 100	> 100	> 100	> 100	–	> 100	–
CNC(=O)N(CCCC(NC(C)=O)C(=O)NCc1ccccc1)Cc1ccccc1 (centres undefined)	–	> 100	> 100	> 100	> 100	–	–	–
COC(=O)CCC(=O)C(CC(=O)OC)C(=O)CCC(=O)NCCc1ccccc1 (centres undefined)	–	–	> 100	> 100	> 100	> 100	> 100	–
c1ccc2c(CNCCCN3CCN(CCCNCc4cccc5ccccc45)CC3)cccc2c1	–	3.69	3.43	3.18	3.17	2.41	18.7	–
Cc1ccc(NC(=O)CC2SC(=Nc3cccc(Cl)c3C)NC2=O)cc1 (centres undefined)	–	> 100	> 100	> 100	> 100	> 100	–	–
N#CCC(=O)N/N=C(/C(=O)Nc1ccccc1)C1C(=O)N(c2ccccc2)N=C1N (centres undefined)	–	> 100	> 100	> 100	> 100	> 100	> 100	–
CN(CC(=O)O)S(=O)(=O)c1ccc(Cl)cc1	–	> 100	> 100	> 100	> 100	–	> 100	–
Cc1ccc(S(=O)OC2c3ccccc3Cc3ccccc32)cc1 (centres undefined)	–	58.5	33	47.2	31.1	40.2	59.4	–
Cc1cc2c(=O)cc(-c3ccc(O)cc3)oc2c(C(=O)O)c1C	–	> 100	> 100	> 100	> 100	–	> 100	–
CC(=O)OC1C(COC(N)=O)OC(n2c(-c3ccc(C)cc3)cc(-c3ccccc3)c(C#N)c2=O)C(OC(C)=O)C1OC(C)=O (centres undefined)	–	> 100	> 100	> 100	> 100	> 100	> 100	–
CCCC(c1cc(C(C)(C)C)c(O)cc1C)c1cc(C(C)(C)C)c(O)cc1C	3.91	–	–	–	–	–	–	–
S=C1NC(c2ccccc2)=NC(Cc2ccccc2)(c2ccccc2)N1c1ccccc1 (centres undefined)	–	> 100	–	> 100	> 100	> 100	> 100	–
CCOC(=O)c1sc(Nc2cc(Cl)ccc2Cl)nc1C	–	> 100	–	> 100	> 100	> 100	> 100	–
OCC(O)COc1ccc(F)cc1 (centres undefined)	–	> 100	> 100	> 100	> 100	–	> 100	–
Cc1ccc(C)c(N2C(=O)C(=O)C(c3nc4ccccc4s3)C(=O)C2=O)c1	–	> 100	> 100	> 100	> 100	–	–	–
CC(=O)Nc1ccc(S(=O)(=O)N/N=C/c2cc(I)cc([N+](=O)[O-])c2O)cc1	–	> 100	> 100	> 100	–	> 100	96.5	–
O=C(O)c1cc(C(=O)C(=O)c2cc(C(=O)O)c(O)c3ccccc23)c2ccccc2c1O	> 100	–	–	–	–	–	–	–
OC1CCC(COC(c2ccccc2)(c2ccccc2)c2ccccc2)O1 (centres undefined)	34.5	–	–	–	–	–	–	–

SMILES	TGI (MDA-N) [µM]	TGI (DLD-1 colon) [µM]	TGI (DMS 273 small cell lung) [µM]	TGI (KM20L2 colon) [µM]	TGI (LXFL 529 NSCLC) [µM]	TGI (RXF-631 renal) [µM]	TGI (HOP-18 NSCLC) [µM]	GI50 (MDA-N) [µM]
O=C(Cc1c(C(=O)Nc2ccccc2)sc(C(=O)Nc2ccccc2)c1CC(=O)Nc1ccccc1)Nc1ccccc1	–	> 100	> 100	> 100	> 100	–	> 100	–
C#CCOCCCC(=O)O	> 100	–	–	–	–	–	–	–
CCCCN(CCCC)C(=O)C(=O)C(C(=O)C(=O)OC)c1nc2ccccc2o1 (centres undefined)	–	> 100	> 100	–	> 100	> 100	> 100	–
Cc1ccccc1C(C#N)/C(=N/NC(N)=S)C(=O)Nc1c(C)cccc1C (centres undefined)	–	> 100	–	> 100	> 100	> 100	> 100	–
Cc1cc2c(cc1C)[n+](=O)c(C(=O)CC(=O)C(=O)Nc1ccccc1C)c(C)n2[O-]	–	–	> 100	> 100	> 100	> 100	> 100	–
Cn1cnc([N+](=O)[O-])c1Sc1nccn1-c1ccccc1	–	> 100	> 100	> 100	–	–	54.3	–
CC[C@H]1[C@@H](C)C=C[C@@H](C)N1S(=O)(=O)c1ccc(C)cc1	–	–	> 100	> 100	> 100	30.4	–	–
CCOC(=O)c1cc2c(OC)cc(OC)cc2oc1=O	> 100	–	–	–	–	–	–	–
S=c1sc2sc(=S)sc2s1	–	> 100	> 100	> 100	26.9	39.1	> 100	–
Cc1cc2c(=O)cc(-c3ccc(C(=O)O)cc3)oc2c(C(N)=O)c1C	–	> 100	> 100	> 100	> 100	> 100	–	–
CC[C@@]1(O)C(=O)OCc2c1cc1n(c2=O)Cc2cc3c(OC)cccc3nc2-1	> 100	19.3	1.14	> 23.6	> 23.1	1.45	> 100	> 100
COC1OC(CO)C(O)C(NC(=O)N(C)N=O)C1O (centres undefined)	–	> 100	> 100	> 100	> 100	–	> 100	–
CN1C(=O)CNS1(=O)=O	–	> 100	> 100	–	> 100	> 100	–	–
Cc1cc2c(=O)cc(-c3ccc(Cl)c(Cl)c3)oc2c(C(=O)O)c1C	–	> 100	–	> 100	> 100	–	> 100	–
CSc1nc(SC)c2c(C)cn(Cc3ccccc3)c2n1	> 100	–	–	–	–	–	–	–
CC(C)c1ccc2c(c1)CCC1C(C)(CN)CCCC21C (centres undefined)	2.86	–	–	–	–	–	–	–
CC1=CC=C2C(C)(C)CC[C@@H]3OC(=O)[C@H]1[C@]23C	–	> 100	> 100	> 100	> 100	> 100	> 100	–
O=C(O)COc1ccc2c3c1C(=O)CCC3CO2 (centres undefined)	–	> 100	> 100	> 100	> 100	–	> 100	–
O=C1C2=C(c3ccccc31)C(c1ccccc1Cl)NC(=S)N2 (centres undefined)	–	> 100	> 100	> 100	> 100	–	–	–
C=CCC1=C2CCCCC2CCC1=O (centres undefined)	–	> 100	> 100	–	> 100	> 100	–	–
